Assay results as given in PubChem BioAssay AID1845197 (Molecular Pharmacology Branch, DTP, NCI, 2023).
Several values for one entry are separate records, joined by “and”; a condition that tells them apart may be missing. Equal entries are not always repeated.

System: 349418-098-R tumor spheroid viability
Assay: Anticancer human tumor 349418-098-R patient-derived lung adenocarcinoma cell line growth inhibition
Conditions: spheroids with HUVEC and MSC; for viability, T/C: stronger effect = lower value
Method in brief: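 Complex tumor spheroids combined malignant cells with endothelial cells and mesenchymal stem cells. DNA-damaging drugs and DNA repair inhibitors were tested alone and in combination, at half-log dilutions down from clinical Cmax (top 10 microM if Cmax unknown), 0.25% DMSO final.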
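Further: spheroids exposed to compound for 7 days before measurement.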
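Wherever viability, T/C is given: percent of vehicle control viability with 100% = DMSO-treated spheroids.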

Which IC50 (curve of first compound, second compound 0.003 µM) does the source give for `Cc1cc(C)c(CNC(=O)c2cc(-c3ccc(CN4CCOCC4)cc3)cc3c2cnn3C2CCCC2)c(=O)[nH]1` + CC[C@@]1(O)C(=O)OCc2c1cc1n(c2=O)Cc2cc3c(CN(C)C)c(O)ccc3nc2-1 here?
Its IC50 is 6.59 µM.

And the IC50 (curve of first compound, second compound 0.00949 µM)?
The IC50 was 5.79 µM.

What about the IC50 (curve of first compound, second compound 0.03 µM) of the same compound?
Its IC50 is 1.03 µM.

What about the IC50 (curve of first compound, second compound 0.0949 µM) of the same compound?
The IC50 was under 0.0316 µM.

What about the IC50 (curve of first compound, second compound 0.3 µM) of the same compound?
The IC50 was under 0.0316 µM.

And the viability, T/C (second compound 0.003 µM, first compound 0.0316 µM)?
Its viability, T/C is 98.5%.

What about the viability, T/C (second compound 0.003 µM, first compound 0.1 µM) of the same compound?
The viability, T/C was 97.9%.

What about the viability, T/C (second compound 0.003 µM, first compound 0.316 µM) of the same compound?
Its viability, T/C is 94.8%.

What about the viability, T/C (second compound 0.003 µM, first compound 1 µM) of the same compound?
Its viability, T/C is 92.6%.

And the viability, T/C (second compound 0.003 µM, first compound 3.16 µM)?
Its viability, T/C is 89.3%.

What about the viability, T/C (second compound 0.003 µM, first compound 10 µM) of the same compound?
Its viability, T/C is 27.5%.

And the viability, T/C (second compound 0.00949 µM, first compound 0.0316 µM)?
The viability, T/C was 93.4%.

What about the viability, T/C (second compound 0.00949 µM, first compound 0.1 µM) of the same compound?
The viability, T/C was 95.7%.

And the viability, T/C (second compound 0.00949 µM, first compound 0.316 µM)?
The viability, T/C was 88.9%.

And the viability, T/C (second compound 0.00949 µM, first compound 1 µM)?
The viability, T/C was 84.4%.

What about the viability, T/C (second compound 0.00949 µM, first compound 3.16 µM) of the same compound?
Its viability, T/C is 71.9%.

And the viability, T/C (second compound 0.00949 µM, first compound 10 µM)?
The viability, T/C was 31.4%.

And the viability, T/C (second compound 0.03 µM, first compound 0.0316 µM)?
The viability, T/C was 73.4%.

And the viability, T/C (second compound 0.03 µM, first compound 0.1 µM)?
The viability, T/C was 75.2%.

What about the viability, T/C (second compound 0.03 µM, first compound 0.316 µM) of the same compound?
The viability, T/C was 62.4%.

And the viability, T/C (second compound 0.03 µM, first compound 1 µM)?
Its viability, T/C is 52.7%.

And the viability, T/C (second compound 0.03 µM, first compound 3.16 µM)?
The viability, T/C was 26.4%.

What about the viability, T/C (second compound 0.03 µM, first compound 10 µM) of the same compound?
Its viability, T/C is 8.63%.

What about the viability, T/C (second compound 0.0949 µM, first compound 0.0316 µM) of the same compound?
Its viability, T/C is 19.2%.

What about the viability, T/C (second compound 0.0949 µM, first compound 0.1 µM) of the same compound?
The viability, T/C was 14.8%.

And the viability, T/C (second compound 0.0949 µM, first compound 0.316 µM)?
The viability, T/C was 8.67%.

What about the viability, T/C (second compound 0.0949 µM, first compound 1 µM) of the same compound?
Its viability, T/C is 5.66%.

What about the viability, T/C (second compound 0.0949 µM, first compound 3.16 µM) of the same compound?
The viability, T/C was 5.2%.

And the viability, T/C (second compound 0.0949 µM, first compound 10 µM)?
The viability, T/C was 4.15%.

And the viability, T/C (second compound 0.3 µM, first compound 0.0316 µM)?
The viability, T/C was 2.97%.

And the viability, T/C (second compound 0.3 µM, first compound 0.1 µM)?
Its viability, T/C is 3.59%.

What about the viability, T/C (second compound 0.3 µM, first compound 0.316 µM) of the same compound?
The viability, T/C was 3.1%.

What about the viability, T/C (second compound 0.3 µM, first compound 1 µM) of the same compound?
The viability, T/C was 3.16%.

What about the viability, T/C (second compound 0.3 µM, first compound 3.16 µM) of the same compound?
Its viability, T/C is 3.27%.

What about the viability, T/C (second compound 0.3 µM, first compound 10 µM) of the same compound?
Its viability, T/C is 3.11%.

For `COc1ccc([C@@H](O)c2cc(-c3ncnc4cc(N5CCOCC5)ccc34)c(F)cc2Cl)nn1`, which viability, T/C (compound 0.0316 µM) is on record?
The viability, T/C was 106% and 101% and 93.8%.

What about the viability, T/C (compound 0.1 µM) of the same compound?
Its viability, T/C is 97.6% and 102% and 111%.

And the viability, T/C (compound 0.316 µM)?
Its viability, T/C is 105% and 103% and 114%.

And the viability, T/C (compound 1 µM)?
Its viability, T/C is 112% and 102% and 111%.

And the viability, T/C (compound 3.16 µM)?
The viability, T/C was 88% and 62.7% and 101%.

And the viability, T/C (compound 10 µM)?
The viability, T/C was 30.2% and 29% and 33.6%.

And the IC50 (curve of compound)?
Its IC50 is 6.74 µM and 4.89 µM and 7.57 µM.

With `COc1ccc([C@@H](O)c2cc(-c3ncnc4cc(N5CCOCC5)ccc34)c(F)cc2Cl)nn1` + Cn1nnc2c(C(N)=O)ncn2c1=O as the compound, how does the IC50 (curve of first compound, second compound 1 µM) read?
The IC50 was 5.61 µM.

And the IC50 (curve of first compound, second compound 3.16 µM)?
The IC50 was 5.09 µM.

What about the IC50 (curve of first compound, second compound 10 µM) of the same compound?
The IC50 was 5.17 µM.

What about the IC50 (curve of first compound, second compound 31.6 µM) of the same compound?
Its IC50 is 4.27 µM.

What about the IC50 (curve of first compound, second compound 100 µM) of the same compound?
Its IC50 is 3.61 µM.

And the viability, T/C (second compound 1 µM, first compound 0.0316 µM)?
Its viability, T/C is 97.6%.

And the viability, T/C (second compound 1 µM, first compound 0.1 µM)?
The viability, T/C was 95.6%.

What about the viability, T/C (second compound 1 µM, first compound 0.316 µM) of the same compound?
The viability, T/C was 101%.

And the viability, T/C (second compound 1 µM, first compound 1 µM)?
Its viability, T/C is 97.7%.

And the viability, T/C (second compound 1 µM, first compound 3.16 µM)?
Its viability, T/C is 73.3%.

What about the viability, T/C (second compound 1 µM, first compound 10 µM) of the same compound?
The viability, T/C was 26.4%.

And the viability, T/C (second compound 3.16 µM, first compound 0.0316 µM)?
The viability, T/C was 103%.

What about the viability, T/C (second compound 3.16 µM, first compound 0.1 µM) of the same compound?
The viability, T/C was 99%.

What about the viability, T/C (second compound 3.16 µM, first compound 0.316 µM) of the same compound?
The viability, T/C was 106%.

What about the viability, T/C (second compound 3.16 µM, first compound 1 µM) of the same compound?
The viability, T/C was 102%.

And the viability, T/C (second compound 3.16 µM, first compound 3.16 µM)?
The viability, T/C was 70.1%.

What about the viability, T/C (second compound 3.16 µM, first compound 10 µM) of the same compound?
Its viability, T/C is 21.3%.

What about the viability, T/C (second compound 10 µM, first compound 0.0316 µM) of the same compound?
The viability, T/C was 99.8%.

And the viability, T/C (second compound 10 µM, first compound 0.1 µM)?
The viability, T/C was 97.5%.

What about the viability, T/C (second compound 10 µM, first compound 0.316 µM) of the same compound?
The viability, T/C was 103%.

What about the viability, T/C (second compound 10 µM, first compound 1 µM) of the same compound?
The viability, T/C was 104%.

What about the viability, T/C (second compound 10 µM, first compound 3.16 µM) of the same compound?
The viability, T/C was 66%.

And the viability, T/C (second compound 10 µM, first compound 10 µM)?
The viability, T/C was 28.5%.

And the viability, T/C (second compound 31.6 µM, first compound 0.0316 µM)?
The viability, T/C was 99.1%.

What about the viability, T/C (second compound 31.6 µM, first compound 0.1 µM) of the same compound?
Its viability, T/C is 104%.

What about the viability, T/C (second compound 31.6 µM, first compound 0.316 µM) of the same compound?
Its viability, T/C is 101%.

What about the viability, T/C (second compound 31.6 µM, first compound 1 µM) of the same compound?
The viability, T/C was 106%.

And the viability, T/C (second compound 31.6 µM, first compound 3.16 µM)?
The viability, T/C was 59.8%.

What about the viability, T/C (second compound 31.6 µM, first compound 10 µM) of the same compound?
The viability, T/C was 22.2%.

And the viability, T/C (second compound 100 µM, first compound 0.0316 µM)?
The viability, T/C was 102%.

What about the viability, T/C (second compound 100 µM, first compound 0.1 µM) of the same compound?
The viability, T/C was 112%.

What about the viability, T/C (second compound 100 µM, first compound 0.316 µM) of the same compound?
The viability, T/C was 107%.

And the viability, T/C (second compound 100 µM, first compound 1 µM)?
Its viability, T/C is 102%.

What about the viability, T/C (second compound 100 µM, first compound 3.16 µM) of the same compound?
Its viability, T/C is 53.4%.

And the viability, T/C (second compound 100 µM, first compound 10 µM)?
Its viability, T/C is 24.1%.
